Test system: OVTOKO cells
Test: Cell growth inhibitory effect on human ovarian cancer cell line (cell counting kit 8, 6 days)
Type: cell-based
Settings: 144 h, 6 days incubation
Source text: NCI-H226 cells, a human mesothelioma cell line (ATCC, CRL-5826), NCI-H322 cells, a human lung cancer cell line (the European Collection of Authenticated Cell Cultures, 95111734), OUTOKO cells, a human ovarian cancer cell line (JCRB cell bank, KRB1048) and […] were each subcultured by keeping the cell density under 80% in a RPMI1640 culture medium with 10% fetal bovine serum (FBS). NCI-H226 cells, NCI-H322 cells and SSP-25 cells were each suspended in the RPMI1640 culture medium mentioned above, and plated to a 96-well flat-bottom plate at 500 cells/well in each well, and incubated at 37° C. in an incubator with 5% CO2 for one day. After the incubation, the evaluation of cell growth inhibitory activity was started. OVTOKO cells were suspended in the RPMI1640 culture medium mentioned above, and plated to a 96-well flat-bottom plate at 250 cells/well in each well, and incubated it at 37° C. in an incubator with 5% CO2 for one day. After the incubation, the evaluation of the cell growth inhibitory activity was started. The next day, a test compound was serially diluted to 5 times of its final concentration in the RPM11640 culture medium mentioned above, and the diluted solution was added to each well. In this case, the final concentration of DMSO in each well was adjusted to 0.1%. After the test compound was added, cells were incubated at 37° C. in an incubator with 5% CO2 for 6 days. At the addition of the test compound and 6 days after the addition, the cell counting measurement was performed using a cell counting kit 8 (made by DOJINDO) according to a protocol equivalent to DOJINDO's recommendation. A reagent contained in the kit was added to each plate and color reaction was performed for 2 or 3 hours at 37° C. in an incubator with 5% CO2. After the reaction, an absorbance at wavelength of 450 nm was measured using a microplate reader. A growth inhibition rate was calculated according to the following formula, from which the concentration of a test compound at which cell growth was inhibited by 50% (GI50 value) was determined.

GI50 [µM] | Structure (SMILES)
≤ 3 | C=CC(=O)NC1CCOc2c1ccc(Oc1ccc(C(F)(F)F)nc1)c2Cl (stereo not shown) [Compound 168, N-(8-Chloro-7-[{6-(trifluoromethyl)pyridin-3-yl}oxy]chroman-4-yl)acrylamide]
≤ 3 | C=CC(=O)NCc1ccc(Cc2ccc(C(F)(F)F)cc2)c2ncccc12 [Compound 211, N-([8-{4-(Trifluoromethyl)benzyl}quinolin-5-yl]methyl)acrylamide]
≤ 3 | [H]/C=C/C(=O)NCc1ccc(Oc2ccc(C(F)(F)F)nc2)c2ncccc12 [Compound 143, N-{(8-[{6-(Trifluoromethyl)pyridin-3-yl}oxy]quinolin-5-yl)methyl}acrylamide]
≤ 3 | C=CC(=O)NC1COc2cccc(Oc3ccc(C(F)(F)F)cc3)c2C1 (stereo not shown) [Compound 35, N-[5-{4-(Trifluoromethyl)phenoxy}chroman-3-yl]acrylamide]
≤ 3 | C=CC(=O)Nc1ccc(Oc2ccc(Cl)cc2)c2nc(C)ccc12 [Compound 117, N-{8-(4-Chlorophenoxy)-2-methylquinolin-5-yl}acrylamide]
≤ 3 | C=CC(=O)NC1COc2c(Oc3ccc(Cl)cc3)ccc(C)c2C1 (stereo not shown) [Compound 41, N-{8-(4-Chlorophenoxy)-5-methylchroman-3-yl}acrylamide]
≤ 3 | C=CC(=O)NC1COc2c(Oc3ccc(C(F)(F)F)cc3)cccc2C1=O (racemic) [Compound 40, N-[4-Oxo-8-{4-(trifluoromethyl)phenoxy}chroman-3-yl]acrylamide]
≤ 3 | [H]/C=C/C(=O)NCc1ccc(Oc2ccc(C(F)(F)F)cc2)c2ncccc12 [Compound 138, N-([8-{4-(Trifluoromethyl)phenoxy}quinolin-5-yl]methyl)acrylamide]
≤ 3 | C=CC(=O)NCc1ccc(Sc2ccc(C(F)(F)F)cc2)c2ncccc12 [Compound 202, N-{(8-[{4-(Trifluoromethyl)phenyl}thio]quinolin-5-yl)methyl}acrylamide]
≤ 3 | C=CC(=O)Nc1cncc(Oc2ccnc(C(F)(F)F)c2)c1 [Compound 108, N-(5-[{2-(Trifluoromethy)pyridin-4-yl}oxy]pyridin-3-yl)acrylamide]
≤ 3 | C=CC(=O)Nc1cncc(Oc2ccc(OC(F)(F)F)cc2)c1 [Compound 100, N-[5-{4-(Trifluoromethoxy)phenoxy}pyridin-3-yl]acrylamide]
≤ 3 | C=CC(=O)NC1COc2c(cccc2Oc2ccc(C(F)(F)F)cc2)C1 (stereo not shown) [Compound 61, N-[8-{4-(Trifluoromethyl)phenoxy}chroman-3-yl]acrylamide]

Continued, compound first:

Structure (SMILES) | GI50 [µM]
C=CC(=O)NC1COc2c(cc(C(F)(F)F)cc2Oc2ccc(C(F)(F)F)nc2)C1 (stereo not shown) [Compound 162, N-{6-(Trifluoromethyl)-8-[{6-(trifluoromethyl)pyridin-3-yl}oxy]chroman-3-yl}acrylamide] | ≤ 3
C=CC(=O)NCc1ncc(Oc2ccc(C(F)(F)F)cc2)c2ccccc12 [Compound 224, N-([4-{4-(Trifluorophenyl)phenoxy}isoquinolin-1-yl]methyl)acrylamide] | ≤ 3
C=CC(=O)NCc1ccc(Oc2ccc(C(F)(F)F)nc2)c2cccnc12 [Compound 219, N-{(5-[{6-(Trifluoromethyl)pyridin-3-yl}oxy]quinolin-8-yl)methyl}acrylamide] | ≤ 3
C=CC(=O)NCc1ccc(C(=O)c2ccc(C(F)(F)F)cc2)c2ncccc12 [Compound 208, N-([8-{4-(Trifluoromethyl)benzoyl}quinolin-5-yl]methyl)acrylamide] | ≤ 3
C=CC(=O)NC1COc2c(cccc2Oc2cnc(C(F)(F)F)cn2)C1 (stereo not shown) [Compound 157, N-(8-[{5-(Trifluoromethyl)pyrazin-2-yl}oxy]chroman-3-yl)acrylamide] | ≤ 3
C=CC(=O)Nc1ccc(OCC2CCC(F)(F)CC2)c2ncccc12 [Compound 126, N-[8-{(4,4-Difluorocyclohexyl)methoxy}quinolin-5-yl]acrylamide] | ≤ 3
C=CC(=O)Nc1cncc(Oc2ccc(C(F)(F)F)c(F)c2)c1 [Compound 106, N-[5-{3-Fluoro-4-(trifluoromethyl)phenoxy}pyridin-3-yl]acrylamide] | ≤ 3
C=CC(=O)NCc1ccc(Oc2ccc(Cl)cc2)c2c1CCCO2 [Compound 176, N-[{8-(4-Chlorophenoxy)chroman-5-yl}methyl]acrylamide] | ≤ 3
[H]/C=C/C(=O)NCc1cc(Oc2ccnc(C(F)(F)F)c2)nc2ccccc12 [Compound 151, N-{(2-[{2-(Trifluoromethyl)pyridin-4-yl}oxy]quinolin-4-yl)methyl}acrylamide] | ≤ 3
C=CC(=O)NC1CCOc2c1ccc(Oc1ccc(C(F)(F)F)nc1)c2Br (stereo not shown) [Compound 169, N-(8-Bromo-7-[{6-(trifluoromethyl)pyridin-3-yl}oxy]chroman-4-yl)acrylamide] | ≤ 3
C=CC(=O)Nc1cncc(Oc2cccc(C(F)(F)F)c2)c1 [Compound 95, N-[5-{3-(Trifluoromethyl)phenoxy}pyridin-3-yl)acrylamide] | ≤ 3
C=CC(=O)N[C@@H]1c2ccc(Oc3ccc(C(F)(F)F)cc3)cc2OC[C@@H]1F (relative stereo) [Compound 21, cis-N-[3-Fluoro-7-{4-(trifluoromethyl)phenoxy}chroman-4-yl]acrylamide] | ≤ 3
C=CC(=O)Nc1ccc(Oc2ccccc2)c2ncccc12 [Compound 111, N-(8-Phenoxyquinolin-5-yl)acrylamide] | ≤ 3
C=CC(=O)NC1CCOc2cc(Oc3ccc(C(F)(F)F)cc3)ccc21 (stereo not shown) [Compound 5, N-[7-{4-(trifluoromethyl)phenoxy}chroman-4-yl]acrylamide] | ≤ 3
[H]/C=C/C(=O)NC1CCOc2c1ccc(Oc1ccc(C(F)(F)F)cc1)c2C (stereo not shown) [Compound 28, N-[8-Methyl-7-{4-(trifluoromethyl)phenoxy}chroman-4-yl]acrylamide] | ≤ 3
[H]/C=C/C(=O)NC1CCOc2c1ccc(Oc1ccc(Cl)cc1)c2OC (stereo not shown) [Compound 32, N-{7-(4-Chlorophenoxy)-8-methoxychroman-4-yl}acrylamide] | ≤ 3
C=CC(=O)NCc1ccc(Oc2ccc(C(F)(F)F)cc2)c2cnccc12 [Compound 223, N-([8-{4-(Trifluoromethy)phenoxy}isoquinolin-5-yl]methyl)acrylamide] | ≤ 3
C=CC(=O)NCc1ccc(Oc2ccc(C(F)(F)F)cc2)c2nc(C)ccc12 [Compound 212, N-([2-Methyl-8-{4-(trifluoromethyl)phenoxy}quinolin-5-yl]methyl)acrylamide] | ≤ 3
C=CC(=O)N[C@H]1CC[C@@H](Oc2ccc(C(F)(F)F)cc2)c2nc(Cl)ccc21 (relative stereo) [Compound 241, cis-N-[2-Chloro-8-{4-(trifluoromethyl)phenoxy}-5,6,7,8-tetrahydroquinolin-5-yl]acrylamide] | ≤ 3
[H]/C=C/C(=O)NCc1cc(Oc2ccc(C(F)(F)F)nc2)nc2ccccc12 [Compound 149, N-{(2-[{6-(Trifluoromethyl)pyridin-3-yl}oxy]quinolin-4-yl)methyl}acrylamide] | ≤ 3
C=CC(=O)NCc1ccc(C(O)c2ccc(C(F)(F)F)cc2)c2ncccc12 (stereo not shown) [Compound 206, N-{(8-[Hydroxy{4-(trifluoromethyl)phenyl}methyl]quinolin-5-yl)methyl}acrylamide] | ≤ 3
C=CC(=O)Nc1ccc(Oc2ccccc2)c2nc(C)ccc12 [Compound 112, N-(2-Methyl-8-phenoxyquinolin-5-yl)acrylamide] | ≤ 3
